Results on two compounds are retold here after US12385008B2, “Method for producing retinal tissue” (SUMITOMO PHARMA CO., LTD., priority 2015, dated 2025).

Assay [1] has as its system human iPS cells (1231A3 strain). Put plainly: Pax6 and Chx10 immunostaining of cell aggregates from human iPS cells (Example 2). As to conditions: first step MEK inhibitor ± PKC inhibitor; second step with 30 nM SAG; BMP4 1.5 nM from day 3; 22 days after start of suspension culture; FIG. 3. It counts as cell-based. On the procedure: (§1) iPS cells derived from human peripheral blood derived-mononuclear cells established from ePMBC (registered trade mark) of Cellular Technology Limited (1231A3 strain, Kyoto University) were used. Undifferentiated maintenance culture of these iPS cells under feeder cell-free conditions was performed according to the method described in “Nakagawa, M. et. al., Sci. Rep. 2014 Jan. 8; 4: 3594”. As the medium, “StemFit (registered trade mark)” AK03 medium (Ajinomoto Co., Inc.) was used and iMatrix-511 (Nippi) was used as a culture substrate.
Production of retinal tissue including a step of culturing in a medium containing an MEK inhibitor, a PKC inhibitor or a Sonic hedgehog signal transduction pathway activating substance was performed as follows. Human iPS cells under culture for maintaining an undifferentiated state were treated with 0.5×TrypLE select (mixture of equal amounts of TrypLE select (Life Technologies) and 0.5 mM EDTA/PBS(−)), scraped using a cell scraper, dispersed to single cells by pipetting, seeded in a 6-well culture plate coated with iMatrix-511 (0.5 μg/cm^2) at 1.2×10^4 cells per 1 well, and cultured in a StemFit medium containing Y-27632 (Wako Pure Chemical Industries, Ltd.) (final concentration 10 μM) as a ROCK inhibitor under 37° C., 5% CO2 conditions. […]

Assay [2] has the same test system. Put plainly: Microscopic observation of collapse of cell aggregates from human iPS cells (Example 2). In kind it is cell-based. The following applies: 10 days after start of suspension culture, FIG. 2. On the procedure:
as §1
Production of retinal tissue including a step of culturing in a medium containing an MEK inhibitor, a PKC inhibitor or a Sonic hedgehog signal transduction pathway activating substance was performed as follows. Human iPS cells under culture for maintaining an undifferentiated state were treated with 0.5×TrypLE select (mixture of equal amounts of TrypLE select (Life Technologies) and 0.5 mM EDTA/PBS(−)), scraped using a cell scraper, dispersed to single cells by pipetting, seeded in a 6-well culture plate coated with iMatrix-511 (0.5 μg/cm^2) at 1.2×10^4 cells per 1 well, and cultured in a StemFit medium containing Y-27632 (Wako Pure Chemical Industries, Ltd.) (final concentration 10 μM) as a ROCK inhibitor under 37° C., 5% CO2 conditions. At 2 days after the seeding, PD0325901 (SIGMA) (final concentration 1 μM) as an MEK inhibitor and Go6983 (SIGMA) (final concentration 2 μM) as a PKC inhibitor were added and the mixture was cultured for 5 days, or at 6 days after seeding, PD0325901 (final concentration 1 μM) was added and the mixture was cultured for […] (completion of step 1). The cells cultured in the medium containing the above-mentioned inhibitors were treated with 0.5×TrypLE select, scraped using a cell scraper, dispersed to single cells by pipetting, seeded in a 96-well culture plate (PrimeSurface 96 V-BOTTOM plate, SUMITOMO BAKELITE CO., LTD.) at 1.0×10^4 cells per 1 well, and cultured in 100 μl of a gfCDM+KSR medium [45% IMDM (Life Technologies), 45% F12 (Life Technologies), 10% KSR (Life Technologies), 1% Chemically defined lipid concentrate (Life Technologies), 450 μM 1-Thioglycerol (SIGMA)] supplemented with Y-27632 (final concentration 20 μM) (second step SAG(−)) or seeded in a gfCDM+KSR medium supplemented with SAG (Enzo) (final concentration 30 nM) (second step SAG(+)) and cultured in suspension under 37° C., 5% CO2 conditions. Cell aggregates were formed by 2 days after the start of the suspension culture (completion of step 2). […]

For `O=C(NOC[C@H](O)CO)c1ccc(F)c(F)c1Nc1ccc(I)cc1F` [PD0325901], the “Pax6, Chx10 (retinal progenitor cell markers) co-positive cells in cell aggregates” value in assay [1] is recorded as “Pax6, Chx10 co-positive cells were confirmed”. In addition, the collapse of aggregates result was “collapse of aggregates was hardly observed” in assay [2] (1-day treatment in first step (1 μM), second step SAG(+) (30 nM SAG)); “collapse of aggregates was observed” in assay [2] (1-day treatment in first step (1 μM), second step SAG(−)); “Collapse of aggregates was not observed” in assay [2] (5-day treatment in first step (PD0325901 1 μM, Go6983 2 μM), irrespective of presence or absence of SAG in second step).

In the case of `CNC1CCC(N(Cc2cccc(-c3ccncc3)c2)C(=O)c2sc3ccccc3c2Cl)CC1` (centres unmarked) [SAG, N-methyl-N′-(3-pyridinylbenzyl)-N′-(3-chlorobenzo[b]thiophene-2-carbonyl)-1,4-diaminocyclohexane], the collapse of aggregates entry in assay [2] (non-treatment in first step, second step SAG(+) (30 nM SAG)) is reported as “collapse of aggregates was hardly observed”.
